According to ChEMBL document CHEMBL2385021, “Discovery of MK-3168: A PET Tracer for Imaging Brain Fatty Acid Amide Hydrolase” (ACS Med Chem Lett, 2013):

Legend:
[1] = molecular target: T1, Fatty-acid amide hydrolase 1 (Homo sapiens, UniProt O00519); experiment: Inhibition of human FAAH expressed in CHO cell lysates assessed as arachidonyl-7-amino-4-methylcoumarin amide hydrolysis to 7-amino 4-methyl coumarin preincubated for 15 mins prior to substrate addition measured after 1 to 3 hrs by fluorescence assay; assay type: cell-free
T1 sequence (O00519 whole entry): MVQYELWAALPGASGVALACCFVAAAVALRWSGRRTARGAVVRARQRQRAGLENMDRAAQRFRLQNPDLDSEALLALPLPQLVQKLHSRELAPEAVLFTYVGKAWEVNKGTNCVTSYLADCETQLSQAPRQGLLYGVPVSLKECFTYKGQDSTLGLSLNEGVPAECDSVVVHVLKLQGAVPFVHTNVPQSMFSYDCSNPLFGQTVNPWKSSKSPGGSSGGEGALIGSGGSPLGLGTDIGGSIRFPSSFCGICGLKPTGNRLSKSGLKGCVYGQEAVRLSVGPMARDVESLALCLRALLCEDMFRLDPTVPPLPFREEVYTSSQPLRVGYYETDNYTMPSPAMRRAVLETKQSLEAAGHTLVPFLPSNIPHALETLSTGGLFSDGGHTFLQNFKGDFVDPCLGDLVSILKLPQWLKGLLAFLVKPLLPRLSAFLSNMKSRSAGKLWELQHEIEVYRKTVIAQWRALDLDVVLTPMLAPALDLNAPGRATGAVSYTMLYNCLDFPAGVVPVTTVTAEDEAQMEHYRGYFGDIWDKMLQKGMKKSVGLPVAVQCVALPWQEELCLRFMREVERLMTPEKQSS

[2] = molecular target: T2, Fatty-acid amide hydrolase 1 (Rattus norvegicus, UniProt P97612); experiment: Inhibition of rat FAAH expressed in CHO cell lysates assessed as arachidonyl-7-amino-4-methylcoumarin amide hydrolysis to 7-amino 4-methyl coumarin preincubated for 15 mins prior to substrate addition measured after 1 to 3 hrs by fluorescence assay; assay type: cell-free
T2 sequence (P97612 whole entry): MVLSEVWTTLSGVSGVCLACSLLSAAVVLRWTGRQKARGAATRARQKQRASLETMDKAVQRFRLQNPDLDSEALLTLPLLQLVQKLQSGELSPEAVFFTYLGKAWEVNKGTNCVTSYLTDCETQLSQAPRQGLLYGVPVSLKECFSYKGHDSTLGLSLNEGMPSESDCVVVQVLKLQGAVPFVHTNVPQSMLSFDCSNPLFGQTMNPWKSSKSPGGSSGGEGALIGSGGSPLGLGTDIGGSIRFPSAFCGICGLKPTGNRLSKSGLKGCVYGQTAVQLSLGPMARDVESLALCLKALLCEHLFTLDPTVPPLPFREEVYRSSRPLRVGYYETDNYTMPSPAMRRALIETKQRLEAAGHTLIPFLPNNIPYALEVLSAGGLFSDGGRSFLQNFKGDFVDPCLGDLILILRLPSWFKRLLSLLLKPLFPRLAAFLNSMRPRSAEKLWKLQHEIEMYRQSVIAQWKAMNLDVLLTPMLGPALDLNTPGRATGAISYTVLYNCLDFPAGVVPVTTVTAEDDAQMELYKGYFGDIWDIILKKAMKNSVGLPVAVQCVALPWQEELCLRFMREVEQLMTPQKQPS

[3] = Lipophilicity, log D of the compound at pH 7.3 by HPLC analysis; assay type: physicochemical; conditions: buffer
[4] = molecular target: T1, Fatty-acid amide hydrolase 1; experiment: (§1) Binding affinity to FAAH in human cortical homogenates
[5] = (§2) Binding affinity to FAAH in rhesus monkey cortical homogenates; assay type: tissue-based, Macaca mulatta
[6] = molecular target: T2, Fatty-acid amide hydrolase 1; experiment: Binding affinity to FAAH in rat cortical homogenates
[7] = Inhibition of rhesus monkey FAAH expressed in CHO cell lysates assessed as arachidonyl-7-amino-4-methylcoumarin amide hydrolysis to 7-amino 4-methyl coumarin preincubated for 15 mins prior to substrate addition measured after 1 to 3 hrs by fluorescence assay; assay type: cell-free, Macaca mulatta
Brain [8] = experiment: Drug uptake in iv dosed rhesus monkey brain after 45 mins measured per mCi/kg by positron emission tomographic analysis; assay type: ADME, organism-based, Macaca mulatta; conditions: in vivo, 0.75 h
[9] = Apparent permeability of the compound; assay type: ADME; conditions: not told
Striatum = experiment: Drug uptake in rhesus monkey striatum at 5 mCi, iv after 45 mins by positron emission tomographic analysis; assay type: ADME, organism-based, Macaca mulatta; conditions: in vivo, 0.75 h
Hippocampus = experiment: Drug uptake in rhesus monkey hippocampal regions at 5 mCi, iv after 45 mins by positron emission tomographic analysis; assay type: ADME, organism-based, Macaca mulatta; conditions: in vivo, 0.75 h
[10] = Drug uptake in rhesus monkey frontal cortex at 5 mCi, iv after 45 mins by positron emission tomographic analysis; assay type: ADME, organism-based, Macaca mulatta; conditions: in vivo, 0.75 h
Acetylcholinesterase = Acetylcholinesterase (Homo sapiens, UniProt P22303); experiment: Inhibition of acetyl cholinesterase (unknown origin)
[11] = molecular target: T3, Fatty-acid amide hydrolase 1 (Homo sapiens) (UniProt O00519); experiment: as §1; conditions: tested as the 3H-labelled form
T3 sequence (whole entry): T1 sequence (O00519 whole entry)

[12] = Inhibition of L-type calcium channel diltiazem binding site (unknown origin); parameters: species or system Homo sapiens
Macaca mulatta [13] = species on record: Macaca mulatta; experiment: Inhibition of FAAH in rhesus monkey whole blood; assay type: tissue-based
[14] = Ratio of drug level in brain to plasma in rat at 2 mg/kg, po after 2 hrs; assay type: ADME, organism-based; parameters: dose 2 mg/kg, route oral; conditions: read-out: BPR
Brain [15] = experiment: Drug uptake in rat brain at 2 mg/kg, po after 2 hrs; assay type: ADME, organism-based; parameters: dose 2 mg/kg, route oral; conditions: in vivo
[16] = Activity at rat P-glycoprotein; assay type: ADME
Phosphodiesterase 4 = Phosphodiesterase 4 (Homo sapiens, UniProt P27815+Q08499+Q07343+Q08493); experiment: Inhibition of phosphodiesterase PDE4 (unknown origin); assay type: protein assay
[17] = Chemical stability of the compound; assay type: physicochemical
Cannabinoid receptor 2 = Cannabinoid receptor 2 (Homo sapiens, UniProt P34972); experiment: Inhibition of CB2 receptor (unknown origin)
[18] = Solubility of the compound in saline buffer at pH 3 to 8 in presence of 10% ethanol; assay type: physicochemical
[19] = Activity at human P-glycoprotein; assay type: ADME
Macaca mulatta [20] = species on record: Macaca mulatta; experiment: as §2; assay type: tissue-based; conditions: tested as the 3H-labelled form
Cannabinoid receptor 1 = Cannabinoid receptor 1 (Homo sapiens, UniProt P21554); experiment: Inhibition of CB1 receptor (unknown origin)
Cytochrome P450 3A4 = Cytochrome P450 3A4 (Homo sapiens, UniProt P08684); experiment: Inhibition of CYP3A4 (unknown origin); assay type: ADME
[21] = molecular target: Voltage-gated inwardly rectifying potassium channel KCNH2 (Homo sapiens, UniProt Q12809); experiment: Inhibition of human ERG
[22] = molecular target: T3, Fatty-acid amide hydrolase 1 (Homo sapiens); experiment: Inhibition of FAAH in human whole blood

Cannabinoid receptor 2, sequence (P34972 whole entry): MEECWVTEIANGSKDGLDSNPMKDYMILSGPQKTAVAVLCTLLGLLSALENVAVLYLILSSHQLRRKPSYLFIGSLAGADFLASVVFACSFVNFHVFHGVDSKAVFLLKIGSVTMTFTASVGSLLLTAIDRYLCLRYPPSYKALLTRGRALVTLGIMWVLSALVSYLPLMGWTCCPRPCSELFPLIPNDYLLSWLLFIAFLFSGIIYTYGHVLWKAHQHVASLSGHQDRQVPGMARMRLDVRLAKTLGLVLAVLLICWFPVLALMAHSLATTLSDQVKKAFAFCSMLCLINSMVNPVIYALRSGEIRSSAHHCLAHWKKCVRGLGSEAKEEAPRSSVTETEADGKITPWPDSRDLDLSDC
Acetylcholinesterase, sequence (P22303 whole entry): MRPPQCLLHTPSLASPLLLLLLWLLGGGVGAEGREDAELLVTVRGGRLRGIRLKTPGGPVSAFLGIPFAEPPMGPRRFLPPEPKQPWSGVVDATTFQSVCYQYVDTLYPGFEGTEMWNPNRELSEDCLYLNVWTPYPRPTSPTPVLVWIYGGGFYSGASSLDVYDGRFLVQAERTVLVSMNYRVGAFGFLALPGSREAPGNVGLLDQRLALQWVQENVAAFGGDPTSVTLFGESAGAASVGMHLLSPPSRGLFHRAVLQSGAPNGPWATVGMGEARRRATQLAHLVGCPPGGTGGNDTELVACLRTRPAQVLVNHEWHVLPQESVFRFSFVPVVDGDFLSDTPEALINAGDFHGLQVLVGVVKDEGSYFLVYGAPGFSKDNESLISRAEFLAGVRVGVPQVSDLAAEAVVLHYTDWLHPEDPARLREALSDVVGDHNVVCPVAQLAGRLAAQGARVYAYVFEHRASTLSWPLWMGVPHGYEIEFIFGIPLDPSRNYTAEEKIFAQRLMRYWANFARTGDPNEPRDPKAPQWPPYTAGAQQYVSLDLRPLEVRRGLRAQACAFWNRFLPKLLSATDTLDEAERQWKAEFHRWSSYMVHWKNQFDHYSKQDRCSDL
Cytochrome P450 3A4, sequence (P08684 whole entry): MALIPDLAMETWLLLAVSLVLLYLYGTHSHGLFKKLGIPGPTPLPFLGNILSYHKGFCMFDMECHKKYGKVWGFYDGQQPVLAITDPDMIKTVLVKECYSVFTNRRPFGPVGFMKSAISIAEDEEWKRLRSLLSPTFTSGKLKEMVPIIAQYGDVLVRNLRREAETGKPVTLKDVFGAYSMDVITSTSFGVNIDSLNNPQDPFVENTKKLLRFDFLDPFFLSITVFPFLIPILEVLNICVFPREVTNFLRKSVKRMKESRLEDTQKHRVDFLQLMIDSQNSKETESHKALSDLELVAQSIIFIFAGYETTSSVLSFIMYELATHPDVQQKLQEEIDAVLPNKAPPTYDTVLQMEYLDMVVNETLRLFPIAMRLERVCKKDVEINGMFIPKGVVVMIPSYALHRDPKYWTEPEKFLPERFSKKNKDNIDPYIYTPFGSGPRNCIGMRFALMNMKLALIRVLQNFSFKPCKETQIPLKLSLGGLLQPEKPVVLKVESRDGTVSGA
Cannabinoid receptor 1, sequence (P21554 whole entry): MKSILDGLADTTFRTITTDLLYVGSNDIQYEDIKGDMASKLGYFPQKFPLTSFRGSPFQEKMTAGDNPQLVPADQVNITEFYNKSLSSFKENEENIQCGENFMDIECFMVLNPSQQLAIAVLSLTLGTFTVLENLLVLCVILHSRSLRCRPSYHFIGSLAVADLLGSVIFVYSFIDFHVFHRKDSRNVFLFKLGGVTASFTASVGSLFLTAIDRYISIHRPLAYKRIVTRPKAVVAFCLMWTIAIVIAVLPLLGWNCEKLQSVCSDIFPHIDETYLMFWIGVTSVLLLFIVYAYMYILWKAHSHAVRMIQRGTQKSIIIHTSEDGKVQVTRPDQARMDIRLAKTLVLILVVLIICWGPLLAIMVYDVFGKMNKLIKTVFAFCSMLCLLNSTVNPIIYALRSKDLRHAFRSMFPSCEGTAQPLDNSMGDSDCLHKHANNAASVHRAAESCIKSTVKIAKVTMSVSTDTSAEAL
Voltage-gated inwardly rectifying potassium channel KCNH2, sequence (Q12809 whole entry): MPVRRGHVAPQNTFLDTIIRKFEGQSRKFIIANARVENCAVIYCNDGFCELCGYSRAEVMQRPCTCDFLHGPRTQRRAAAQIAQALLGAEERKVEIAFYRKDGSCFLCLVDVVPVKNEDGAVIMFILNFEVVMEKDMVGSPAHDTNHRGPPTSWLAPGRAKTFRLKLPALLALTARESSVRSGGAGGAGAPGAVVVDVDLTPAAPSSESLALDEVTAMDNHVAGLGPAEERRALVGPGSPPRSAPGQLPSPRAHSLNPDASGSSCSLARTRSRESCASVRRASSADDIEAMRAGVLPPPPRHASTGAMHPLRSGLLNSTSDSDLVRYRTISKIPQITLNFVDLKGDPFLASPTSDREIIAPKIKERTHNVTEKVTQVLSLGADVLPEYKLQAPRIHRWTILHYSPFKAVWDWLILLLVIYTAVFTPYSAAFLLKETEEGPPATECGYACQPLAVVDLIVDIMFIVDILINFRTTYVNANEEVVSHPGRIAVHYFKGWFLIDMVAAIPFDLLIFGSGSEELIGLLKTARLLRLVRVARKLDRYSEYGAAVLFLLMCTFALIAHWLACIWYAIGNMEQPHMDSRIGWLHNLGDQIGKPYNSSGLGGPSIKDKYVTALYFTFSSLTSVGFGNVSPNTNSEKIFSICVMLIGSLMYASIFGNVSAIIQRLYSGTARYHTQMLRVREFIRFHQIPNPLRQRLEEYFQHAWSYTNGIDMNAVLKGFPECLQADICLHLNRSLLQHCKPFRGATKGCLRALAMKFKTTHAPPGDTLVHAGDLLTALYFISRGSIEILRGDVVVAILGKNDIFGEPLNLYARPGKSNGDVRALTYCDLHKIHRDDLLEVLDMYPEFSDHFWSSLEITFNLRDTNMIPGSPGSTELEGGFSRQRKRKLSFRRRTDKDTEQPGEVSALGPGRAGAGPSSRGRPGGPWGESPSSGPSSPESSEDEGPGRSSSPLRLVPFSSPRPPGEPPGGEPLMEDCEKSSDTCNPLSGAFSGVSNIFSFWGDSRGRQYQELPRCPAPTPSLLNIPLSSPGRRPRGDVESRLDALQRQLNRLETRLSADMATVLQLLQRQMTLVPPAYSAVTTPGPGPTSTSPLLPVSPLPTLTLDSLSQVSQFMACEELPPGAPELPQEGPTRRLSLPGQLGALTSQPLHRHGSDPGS

| Structure (SMILES) | IC50 [1] | IC50 [2] | logD [3] | IC50 [7] | other results |
| --- | --- | --- | --- | --- | --- |
| Cc1nc(-c2ccc([C@H]3C[C@@H]3C(=O)N(C)C)cc2)c(Sc2ccc(Cl)cn2)n1C | 13.6 nM | 34 nM |  |  |  |
| CNC(=O)[C@H]1C[C@@H]1c1ccc(-c2ncn(C)c2Sc2ccc(Cl)cn2)cc1 |  | 6 nM | 2.9 |  |  |
| [3H]C([3H])([3H])n1cnc(-c2ccc([C@H]3C[C@@H]3C(=O)N(C)C)cc2)c1Sc1ccc(Cl)cn1 |  |  |  |  | Kd [4]: 0.8 nM; Kd [5]: 1.4 nM; Kd [6]: 0.6 nM |
| CN(C)C(=O)[C@H]1C[C@@H]1c1ccc(-c2ncn(CCF)c2Sc2ccc(Cl)cn2)cc1 |  | 4.8 nM |  |  |  |
| CN(C)C(=O)[C@H]1C[C@@H]1c1ccc(-c2c(Sc3ccc(Cl)cn3)ncn2C)cc1 | 839 nM | 1390 nM |  |  |  |
| CN(C)C(=O)[C@H]1C[C@@H]1c1ccc(-c2nc(C3CC3)n(C)c2Sc2ccc(Cl)cn2)cc1 | 48 nM | 106 nM |  |  |  |
| CN(C)C(=O)[C@H]1C[C@@H]1c1ccc(-c2ncn([11CH3])c2Sc2ccc(Cl)cn2)cc1 [MK-3168 C-11] |  |  |  |  | SUV (Brain [8]): > 1 nCi/cc; Papp [9]: 27 ×10⁻⁶ cm/s; Drug uptake (Striatum): Active; Drug uptake (Hippocampus): Active; Drug uptake [10]: Active |
| CN(C)C(=O)[C@H]1C[C@@H]1c1ccc(-c2ncn(C)c2Sc2ccc(Cl)cn2)cc1 [MK-3168] |  | 1.7 nM | 3.3 | 5.5 nM | IC50 (Acetylcholinesterase): 1630 nM; Bmax [11]: 15 nM; IC50 [12]: 16000 nM; IC90 (Macaca mulatta [13]): 29 nM; Kp at 2 h [14]: 7; Drug uptake (Brain [15]): Active; Activity [16]: Not Active; IC50 (Phosphodiesterase 4): 9750 nM; Stability [17]: 24 h; IC50 (Cannabinoid receptor 2): 150000 nM; solubility [18]: soluble; Activity [19]: Not Active; Bmax (Macaca mulatta [20]): 21 nM; IC50 (Cannabinoid receptor 1): 30000 nM; IC50 (Cytochrome P450 3A4): > 50000 nM; IC50 [21]: 37000 nM; IC90 [22]: 5.5 nM |
| Cn1cnc(-c2ccc([C@H]3C[C@@H]3C(N)=O)cc2)c1Sc1ccc(Cl)cn1 |  | 12 nM | 2 |  |  |
| CN(C)C(=O)[C@H]1C[C@@H]1c1ccc(-c2nc[nH]c2Sc2ccc(Cl)cn2)cc1 |  | 145 nM |  |  |  |

The next lines start with results.

| IC50 [1] | IC50 [2] | logD [3] | IC50 [7] | Structure (SMILES) | other results |
| --- | --- | --- | --- | --- | --- |
| 0.5 nM | 0.4 nM | 4.2 | 0.8 nM | [11CH3]n1cc(Sc2ccc(Cl)cc2)c(-c2ccc3ccc(C(N)=O)nc3c2)n1 |  |
| 0.8 nM | 1.7 nM | 3.6 |  | Cn1cnc(-c2ccc([C@H]3C[C@@H]3C(N)=O)cc2)c1Sc1ccc(Cl)cc1 |  |
|  | 4.2 nM | 3 | 7 nM | Cn1cnc(-c2ccc([C@H]3C[C@@H]3C(=O)NCCF)cc2)c1Sc1ccc(Cl)cn1 |  |
| 0.5 nM | 1.4 nM | 3.8 |  | CNC(=O)[C@H]1C[C@@H]1c1ccc(-c2ncn(C)c2Sc2ccc(Cl)cc2)cc1 |  |
| 1.1 nM | 1.3 nM | 4.3 | 8.8 nM | CN(CCF)C(=O)[C@H]1C[C@@H]1c1ccc(-c2ncn(C)c2Sc2ccc(Cl)cc2)cc1 |  |
|  | 3 nM | 3.4 | 27 nM | CN(CCF)C(=O)[C@H]1C[C@@H]1c1ccc(-c2ncn(C)c2Sc2ccc(Cl)cn2)cc1 |  |
| 1 nM | 1.4 nM | 4 | 3.1 nM | Cn1cnc(-c2ccc([C@H]3C[C@@H]3C(=O)NCCF)cc2)c1Sc1ccc(Cl)cc1 |  |
| 5 nM | 4.2 nM | 3.8 | 33 nM | NC(=O)[C@H]1C[C@@H]1c1ccc(-c2nn(C3CC3)cc2Sc2ccc(Cl)cc2)cc1 |  |
|  | 0.6 nM | 4.2 | 1.4 nM | CN(C)C(=O)[C@H]1C[C@@H]1c1ccc(-c2ncn(C)c2Sc2ccc(Cl)cc2)cc1 |  |
